From PubChem BioAssay AID2060497 (Molecular Pharmacology Branch, DTP, NCI, 2025)
pIC50: −log10 of the molar value.

Tested on: 317291-083-R-J1-PDC complex spheroids, viability
Experiment: Anticancer human tumor 317291-083-R-J1-PDC patient-derived soft tissue sarcoma cell line growth inhibition [GQUAD]
Details: for pIC50: curve of first compound; for viability, T/C: stronger effect = lower value; active = viability on the fitted dose curve at most 10% of control; inactive = the rest
Excerpt: DNA G-quadruplex Stabilizer Agents in Combinations in Complex Spheroids
A high-throughput screen of multi-cell type tumor spheroids was designed to identify active combinations of DNA G-quadruplex stabilizer agents and targeted small molecules. Complex spheroids include a stromal component modeled by human endothelial cells (HUVEC) and fibroblasts modeled by human mesenchymal stem cells (MSCs). The concentration ranges selected for each drug and investigational agent were based upon clinically achievable concentrations if the clinical Cmax of the agent was known.
Compounds. The drugs and investigational agents: pidnarulex (CX-5461; NSC782164), APTO-253 (NSC789042), BRACO-19 (NSC847499), peposertib (NSC802822), ceralasertib (NSC780249), elimusertib (NSC800525), camonsertib (NSC841442), AZD-1390 (NSC803789), olaparib (NSC753686), talazoparib (NSC767125), ART-558 (NSC835418), sotorasib (NSC818433), MRTX-1133 (NSC836407), SN-38 (NSC673596), topotecan (NSC609699), etoposide (NSC141540), doxorubicin (NSC123127), gemcitabine (NSC613327), 5-fluorouracil (NSC19893), paclitaxel (NSC125973), vemurafenib (NSC761431), panobinostat (NSC761190), R-306465 (JNJ-16241199; NSC773264), adavosertib (NSC754352), TP-3654 (NSC805149), carboplatin (NSC241240), KSQ-4279 (NSC840948), and staurosporine (NSC755774) were obtained from the National Cancer Institute (NCI) Developmental Therapeutics Program Chemical Repository (34). The FDA-approved anticancer drug set is available from the NCI Developmental Therapeutics Program. […] The stock solutions were prepared in dimethyl sulfoxide (DMSO, Sigma-Aldrich, St. Louis, MO, cat. D2650) at 800-fold the tested concentration and stored at -70 degrees C prior to their use. All drugs and investigational agents were tested over a range starting from a high concentration at or near the clinical Cmax and decreasing in half-log increments. If the clinical Cmax for an agent had not been determined, the highest concentration tested was 10 microM.
2.3 Cell Culture. All cells were maintained in an incubator at 37 degrees C and 5% CO2 with 95% humidity. The PDC lines were cultured according to standard operating procedures established by the NCI PDMR. All PDCs were thawed and cultured in Matrigel-coated flasks prepared with a working solution of 1X Ham's F-12 nutrient mix, without supplementation (Invitrogen, cat. 11765054), 100 U/mL penicillin-streptomycin (Invitrogen, cat. 15140122), and 2.5% Matrigel (Corning Inc., cat. 354248) for the first three passages. The 857933-349-R-J2-PDC line was cultured in 6C/Colon 1B media, which includes advanced DMEM/F-12 (Thermo Fisher Scientific, cat. 12634028), 10 mM HEPES (Thermo Fisher Scientific, cat. 15630080), 1X GlutaMAX supplement (Thermo Fisher Scientific, cat. 35050061), 0.1 mg/mL primocin (InvivoGen, cat. ant-pm-2), 10% defined fetal bovine serum, heat inactivated (HyClone Laboratories Inc., cat. SH30070.03HI), 50% L-WRN conditioned media (ATCC, cat. CRL-3276), 1.25 mM N-Acetyl-L-cysteine (Sigma-Aldrich, cat. A9165), 10 mM nicotinamide (Sigma-Aldrich, cat. N0636), 1X B-27 supplement (Thermo Fisher Scientific, cat. 17504044), 1X N-2 supplement (Thermo Fisher Scientific, cat. 17502048), 10 microM Y-27632 dihydrochloride (Tocris Bioscience, cat. 1254), and 50 ng/mL human EGF recombinant protein (Thermo Fisher Scientific, cat. PHG0311). The 485176-168-R4-J1-PDC line was cultured in Panc media, which includes all 6C/Colon 1B media components plus 100 ng/mL human FGF-10 (Thermo Fisher Scientific, cat. 100-26), 500 nM SB-431542 (Selleckchem, cat. S1067), and gastrin (Tocris, cat. 3006).
[…]

[1] = second compound 0.0316 µM, first compound 0.0316 µM
[2] = second compound 0.0316 µM, first compound 0.1 µM
[3] = second compound 0.0316 µM, first compound 0.316 µM
[4] = second compound 0.0316 µM, first compound 1 µM
[5] = second compound 0.0316 µM, first compound 3.16 µM
[6] = second compound 0.0316 µM, first compound 10 µM
[7] = second compound 0.1 µM, first compound 0.0316 µM
[8] = second compound 0.1 µM, first compound 0.1 µM
[9] = second compound 0.1 µM, first compound 0.316 µM
[10] = second compound 0.1 µM, first compound 1 µM
[11] = second compound 0.1 µM, first compound 3.16 µM
[12] = second compound 0.1 µM, first compound 10 µM
[13] = second compound 0.316 µM, first compound 0.0316 µM
[14] = second compound 0.316 µM, first compound 0.1 µM
[15] = second compound 0.316 µM, first compound 0.316 µM
[16] = second compound 0.316 µM, first compound 1 µM
[17] = second compound 0.316 µM, first compound 3.16 µM
[18] = second compound 0.316 µM, first compound 10 µM
[19] = second compound 1 µM, first compound 0.0316 µM
[20] = second compound 1 µM, first compound 0.1 µM
[21] = second compound 1 µM, first compound 0.316 µM
[22] = second compound 1 µM, first compound 1 µM
[23] = second compound 1 µM, first compound 3.16 µM
[24] = second compound 1 µM, first compound 10 µM
[25] = second compound 3.16 µM, first compound 0.0316 µM
[26] = second compound 3.16 µM, first compound 0.1 µM
[27] = second compound 3.16 µM, first compound 0.316 µM
[28] = second compound 3.16 µM, first compound 1 µM
[29] = second compound 3.16 µM, first compound 3.16 µM
[30] = second compound 3.16 µM, first compound 10 µM
[31] = second compound 10 µM, first compound 0.0316 µM
[32] = second compound 10 µM, first compound 0.1 µM
[33] = second compound 10 µM, first compound 0.316 µM
[34] = second compound 10 µM, first compound 1 µM
[35] = second compound 10 µM, first compound 3.16 µM
[36] = second compound 10 µM, first compound 10 µM
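Also: spheroids exposed to compounds for one week before readout.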
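For viability, T/C in this document: percent viability relative to DMSO vehicle wells taken as 100%.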

CC(C)(O)C1CCC(Nc2ccc3ncc(-c4cccc(C(F)(F)F)c4)n3n2)CC1 (centres undefined) + Cc1cnc(CNC(=O)c2c(=O)c3ccc(N4CCCN(C)CC4)nc3n3c2sc2ccccc23)cn1
7.04: pIC50 (second compound 0.316 µM)
active: viability, T/C [5] 0.22% | viability, T/C [6] 0.45% | viability, T/C [11] 0.24% | viability, T/C [12] 1.34% | viability, T/C [17] 1.74% | viability, T/C [18] 2.26% | viability, T/C [23] 0.05% | viability, T/C [24] 0.07% | viability, T/C [27] 8.5% | viability, T/C [28] 0.54% | viability, T/C [29] 0.12% | viability, T/C [30] 0.16% | viability, T/C [31] 1.34% | viability, T/C [32] 0.11% | viability, T/C [33] 0.17% | viability, T/C [34] 0.12% | viability, T/C [35] 0.21% | viability, T/C [36] 0.22%
> 7.50: pIC50 (second compound 1 µM) | pIC50 (second compound 3.16 µM) | pIC50 (second compound 10 µM)
inactive: viability, T/C [1] 87.8% | viability, T/C [2] 76.5% | viability, T/C [3] 72.1% | viability, T/C [4] 19% | viability, T/C [7] 58.2% | viability, T/C [8] 60% | viability, T/C [9] 49.1% | viability, T/C [10] 28% | viability, T/C [13] 72.8% | viability, T/C [14] 37.8% | viability, T/C [15] 37.8% | viability, T/C [16] 24.8% | viability, T/C [19] 30.8% | viability, T/C [20] 19.5% | viability, T/C [21] 16% | viability, T/C [22] 25.2% | viability, T/C [25] 13.3% | viability, T/C [26] 14.7%
6.47: pIC50 (second compound 0.1 µM)
6.29: pIC50 (second compound 0.0316 µM)

O=C(NO)c1cnc(N2CCN(S(=O)(=O)c3ccc4ccccc4c3)CC2)nc1 + Cc1cnc(CNC(=O)c2c(=O)c3ccc(N4CCCN(C)CC4)nc3n3c2sc2ccccc23)cn1
> 7.50: pIC50 (second compound 0.1 µM) | pIC50 (second compound 0.316 µM) | pIC50 (second compound 1 µM) | pIC50 (second compound 3.16 µM) | pIC50 (second compound 10 µM)
inactive: viability, T/C [1] 82.5% | viability, T/C [2] 53.5% | viability, T/C [7] 47.2% | viability, T/C [8] 41.8% | viability, T/C [13] 44.2% | viability, T/C [14] 45.2% | viability, T/C [19] 43.9% | viability, T/C [20] 15.2%
6.96: pIC50 (second compound 0.0316 µM)
active: viability, T/C [3] 7.38% | viability, T/C [4] 0.63% | viability, T/C [5] 0.05% | viability, T/C [6] 0.08% | viability, T/C [9] 6.03% | viability, T/C [10] 0.12% | viability, T/C [11] 0.03% | viability, T/C [12] 0.29% | viability, T/C [15] 5.28% | viability, T/C [16] 0.07% | viability, T/C [17] 0.02% | viability, T/C [18] 0.62% | viability, T/C [21] 2.02% | viability, T/C [22] 0.07% | viability, T/C [23] 0.04% | viability, T/C [24] 0.08% | viability, T/C [25] 8.49% | viability, T/C [26] 0.73% | viability, T/C [27] 1.12% | viability, T/C [28] 1.06% | viability, T/C [29] 0.08% | viability, T/C [30] 0.11% | viability, T/C [31] 0.07% | viability, T/C [32] 0.11% | viability, T/C [33] 0.16% | viability, T/C [34] 0.1% | viability, T/C [35] 0.18% | viability, T/C [36] 0.18%
